Experimental data as given in PMC8999625, “Antiviral Effects of ABMA and DABMA against Influenza Virus In Vitro and In Vivo via Regulating the Endolysosomal Pathway and Autophagy” (International Journal of Molecular Sciences, 2022).
Entries after “also recorded” stand apart in the source; their conditions may differ. Where a name gives a salt, the structure may show the parent alone. Read-outs that look alike come from different tables or passages of the source.

What was measured:
[1] = system: HSV-2; conditions: cited from earlier work
[2] = system: Corynebacterium diphtheriae; set-up: method as in PMID 29138439; conditions: cited from earlier work
[3] = system: Ebola virus; conditions: cited from earlier work
[4] = system: A/NY/61/LV16A (H1N1); test: H1N1 NP mRNA by qRT-PCR in A549 cells treated with autophagy inhibitors; type: cell-based, influenza virus
[5] = uninfected mice, 5 mg/kg i.p.
[6] = system: A/NY/61/LV16A (H1N1); test: Viral nucleoprotein (NP) by Western blotting; type: cell-based, influenza virus
[7] = system: A/NY/61/LV16A (H1N1); test: H1N1 RNA replication by qRT-PCR in MDCK cells; type: cell-based, influenza virus
[8] = system: B/Washington/02/2019; test: CPE inhibition assay; type: cell-based
[9] = in vitro; conditions: dog
[10] = system: influenza virus strains (H1N1, H3N2, influenza B virus); test: CPE inhibition assay, all influenza virus strains tested; type: cell-based; conditions: unidentified influenza virus; range over five strains, MDCK cells; read-out: EC50 values ranging, all influenza virus strains tested
[11] = system: A/NY/61/LV16A (H1N1); test: Entry assay; type: cell-based, influenza virus
[12] = system: A/NY/61/LV16A (H1N1); test: CPE inhibition assay; type: cell-based
[13] = system: LC3B-II and p62; test: Autophagy markers by Western blotting in A549 cells; type: cell-based; conditions: dose- and time-dependent
[14] = system: A/NY/61/LV16A (H1N1); test: Binding assay; type: cell-based, influenza virus
[15] = in vitro; conditions: human
[16] = system: Rab7; type: cell-based; conditions: 15 µM, A549 cells, 3 hpi
[17] = system: A/NY/61/LV16A (H1N1); type: cell-based; conditions: 15 μM, A549 cells, MOI = 1, 16 hpi, vs virus control
[18] = system: A/17/HK/2014/8296 (H3N2); test: CPE inhibition assay; type: cell-based
[19] = system: A/Maonan/SWL1536/2019 (H1N1); test: CPE inhibition assay; type: cell-based
[20] = system: A/NY/61/LV16A (H1N1); type: in vivo, BALB/c mice; conditions: for survival rate: 5 mg/kg i.p. once daily for 6 days, H1N1 i.n., 14 days; for H1N1 virus titers in the lungs compared to placebo / lung histopathology changes (H&E) / lung index compared to placebo / lung viral load compared to placebo: mouse, in vivo, ip
[21] = system: A/NY/61/LV16A (H1N1); test: Time of addition assay; type: cell-based, influenza virus
[22] = Cytotoxicity, CellTiter-Glo cell viability; conditions: dog, uninfected MDCK cells
[23] = Influenza B virus; B/M2; infected MDCK cells, MOI = 0.01, 48 hpi; read-out: EC50 ± SD B/Washington/02/2019
[24] = Influenza A virus, H1N1, MDCK; read-out: EC50 ± SD A/NY/61/LV16A (H1N1)
[25] = Influenza A virus, H1N1; MDCK cells; read-out: EC90 (approximately)
[26] = Influenza A virus, H3N2, MDCK; read-out: EC50 ± SD A/17/HK/2014/8296 (H3N2)
[27] = Influenza A virus, H1N1, MDCK; read-out: EC50 ± SD A/Maonan/SWL1536/2019 (H1N1)

Question: With `CC(N)C12CC3CC(CC(C3)C1)C2` (stereo not shown) [1-(1-adamantyl) ethylamine] as the molecule, how does the “activity against HSV-2 infection” value [1] read?
Answer: inactive

Question: And the “activity against Corynebacterium diphtheriae” value [2]?
Answer: inactive

Question: What about the “activity against Ebola virus” value [3] of the same molecule?
Answer: inactive

Question: For `Cn1cnc(N)c2ncnc1-2` [3-MA, 3-methyladenine], which “H1N1 RNA content” value [4] is on record?
Answer: significantly decreased

Question: With `COc1ccc(Br)cc1CNC12CC3CC(CC(C3)C1)C2` [ABMA, 1-adamantyl (5-bromo-2-methoxybenzyl) amine] as the molecule, how does the “changes in animal behavior, lethargy and body weight” value [5] read?
Answer: No remarkable changes

Question: And the “NP expression levels (Western blot)” value [6]?
Answer: reduced; also recorded: decreased

Question: And the “inhibition of H1N1 RNA replication (qRT-PCR)” value [7]?
Answer: 81.77%

Question: What about the EC50 [8, 23] of the same molecule?
Answer: 7.36 ± 0.65 µM

Question: What about the CC50 at 72 h [9] of the same molecule?
Answer: 72.3 ± 1.09 µM

Question: And the EC50 [10]?
Answer: 2.83 to 7.36 µM

Question: What about the “entry stage of H1N1” value [11] of the same molecule?
Answer: significantly inhibited

Question: What about the EC50 [12, 24] of the same molecule?
Answer: 3.25 ± 0.17 µM

Question: And the EC90 [12, 25]?
Answer: ~15 µM

Question: What about the LC3B-II level [13] of the same molecule?
Answer: increased

Question: And the p62 level [13]?
Answer: increased

Question: And the “binding of the virus to cells” value [14]?
Answer: do not affect

Question: And the CC50 [15]?
Answer: 83.8 ± 1.92 µM

Question: What about the Rab7 protein fluorescence [16] of the same molecule?
Answer: largely increased

Question: And the NP fluorescence signal [17]?
Answer: significantly decreased

Question: What about the EC50 [18, 26] of the same molecule?
Answer: 5.58 ± 0.38 µM

Question: What about the EC50 [19, 27] of the same molecule?
Answer: 4.57 ± 0.33 µM

Question: What about the survival rate [20] of the same molecule?
Answer: 67%

Question: What about the “H1N1 virus titers in the lungs compared to placebo” value [20] of the same molecule?
Answer: lower titers

Question: And the “lung histopathology changes (H&E)” value [20]?
Answer: significant reduction

Question: What about the “lung index compared to placebo” value [20] of the same molecule?
Answer: significantly reduced

Question: And the “lung viral load compared to placebo” value [20]?
Answer: significantly reduced

Question: What about the “H1N1 RNA content, time of addition” value [21] of the same molecule?
Answer: significantly reduced

Question: Which “activity against HSV-2 infection” value [1] does the source give for `NC12CC3CC(CC(C3)C1)C2` [Amantadine, Amantadine hydrochloride] here?
Answer: inactive

Question: What about the “antiviral activity against B/Washington/02/2019 (IBV)” value [8] of the same molecule?
Answer: did not show antiviral activity; also recorded: no significant protection

Question: What about the EC50 ([8]; Influenza B virus, MDCK, read-out: EC50 ± SD B/Washington/02/2019) of the same molecule?
Answer: > 100 µM

Question: What about the CC50 [9] of the same molecule?
Answer: 477 ± 39.5 µM

Question: What about the EC50 [12, 24] of the same molecule?
Answer: 9.97 ± 1.34 µM

Question: And the EC50 [18, 26]?
Answer: 8.27 ± 0.66 µM

Question: What about the EC50 [19, 27] of the same molecule?
Answer: 20.2 ± 1.36 µM

Question: And the “activity against Corynebacterium diphtheriae” value [2]?
Answer: inactive

Question: And the “activity against Ebola virus” value [3]?
Answer: inactive

Question: Which “NP expression levels (Western blot)” value [6] does the source give for `CO/C1=C\C(C)=C\[C@@H](C)[C@@H](O)[C@@H](C)C/C(C)=C/C=C/[C@H](OC)[C@@H]([C@@H](C)[C@@H](O)[C@H](C)[C@@]2(O)C[C@@H](O)[C@H](C)[C@@H](C(C)C)O2)OC1=O` [Baf A1, Bafilomycin A1, reference compound] here?
Answer: decreased

Question: And the “H1N1 RNA content” value [4]?
Answer: significantly decreased

Question: Which EC50 [12, 24] does the source give for `CCN(CC)CCCC(C)Nc1ccnc2cc(Cl)ccc12` (stereo not shown) [Chloroquine, reference compound] here?
Answer: 17.1 ± 2.27 µM

Question: And the EC50 [18, 26]?
Answer: 12 ± 1.26 µM

Question: Which results are given for `COc1ccc(Br)cc1CNC12CC3CC(C)(CC(C)(C3)C1)C2` [DABMA, 1,3-dimethyl-1-adamantyl (5-bromo-2-methoxybenzyl) amine]?
Answer: changes in animal behavior, lethargy and body weight [5]: No remarkable changes; NP expression levels (Western blot) [6]: reduced; inhibition of H1N1 RNA replication (qRT-PCR) [7]: 86.51%; EC50 [8, 23]: 6.62 ± 0.46 µM; CC50 at 72 h [9]: 42.7 ± 1.46 µM; EC50 [10]: 1.82 to 6.73 µM; entry stage of H1N1 [11]: significantly inhibited; EC50 [12, 24]: 1.82 ± 0.11 µM; EC90 [12, 25]: ~15 µM; binding of the virus to cells [14]: do not affect; CC50 [15]: 47.4 ± 1.68 µM; NP fluorescence signal [17]: significantly decreased; EC50 [18, 26]: 6.73 ± 0.73 µM; EC50 [19, 27]: 2.69 ± 0.26 µM; survival rate [20]: 67%; H1N1 virus titers in the lungs compared to placebo [20]: lower titers; lung histopathology changes (H&E) [20]: significant reduction; lung index compared to placebo [20]: significantly reduced; lung viral load compared to placebo [20]: significantly reduced; H1N1 RNA content, time of addition [21]: significantly reduced

Question: For `CCOC(=O)C1=C[C@@H](OC(CC)CC)[C@H](NC(C)=O)[C@@H](N)C1` [Oseltamivir, Oseltamivir phosphate], which EC50 ([8]; Influenza B virus, MDCK; read-out: EC50 ± SD B/Washington/02/2019) is on record?
Answer: 8.53 ± 1.64 µM

Question: And the CC50 at 72 h [9]?
Answer: 1890 ± 71.8 µM

Question: What about the EC50 [12, 24] of the same molecule?
Answer: 7.97 ± 0.85 µM

Question: And the EC50 [18, 26]?
Answer: 7.3 ± 0.79 µM

Question: What about the EC50 [19, 27] of the same molecule?
Answer: 2.95 ± 0.21 µM

Question: What does the source list for `NC(=O)c1ncn([C@@H]2O[C@H](CO)[C@@H](O)[C@H]2O)n1` [Ribavirin, ribavirin]?
Answer: EC50 [8, 23]: 3.02 ± 0.39 µM; EC50 ([12]; Influenza A virus, H1N1, MDCK, read-out: EC50 ± SD A/NY/61/LV16A (H1N1)): 1.61 ± 0.62 µM; CC50 at 72 h [22]: 5480 ± 255 µM; EC50 ([18]; Influenza A virus, H3N2, MDCK, read-out: EC50 ± SD A/17/HK/2014/8296 (H3N2)): 0.13 ± 0.04 µM; EC50 ([19]; Influenza A virus, H1N1, MDCK, read-out: EC50 ± SD A/Maonan/SWL1536/2019 (H1N1)): 3.2 ± 0.34 µM

Question: What does the source list for `CC12CC3CC(C)(C1)CC(N)(C3)C2` [memantine]?
Answer: activity against HSV-2 infection [1]: inactive; activity against Corynebacterium diphtheriae [2]: inactive; activity against Ebola virus [3]: inactive
